Measurements taken from patent US20260234115A1, “LIPID COMPOUNDS, COMPOSITIONS, AND USES THEREOF” (Liberate Bio, Inc., priority 2023, published 2026).
Marks after values point to notes of the source that are not given here.

Test system: mouse organs
Test: In vivo activity screening in mice: organ mean total flux (p/s) of luciferase activity after injection of F2 LNP pools (Table 6, FIG. 7A-7C)
Conditions: luciferase mRNA
Protocol: Small rodent biodistribution studies were performed in mice (e.g., C57BL/6J, Balb-c, CD-1, etc.). For evaluating LNP biodistribution and tissue activity upon systemic administration, C57BL/6J mice received dose administration by single intravenous injection via tail vein with LNP formulations (individual or pooled) in PBS, at different dose (0.25-3 mg/kg) levels of firefly luciferase mRNA. At predetermined time points (4-6 hours post-injection), the animals were anesthetized via isoflurane and subjected to in-life imaging sessions for bioluminescence using an In Vivo Imaging System (IVIS). All animals were dosed with D-Luciferin at 15 mg/mL via subcutaneous (SC) injection at 0.2 mL/animal. Animals had their abdomen hair shaved using an animal trimmer. They were then placed so their shaved belly faced up toward the IVIS camera. Whole body imaging sessions were performed 10-15 minutes following D-Luciferin administration.
For in detail organ distribution and activity of LNP formulations, ex vivo imaging sessions were also performed. All animals received SC D-Luciferin and were then euthanized by isoflurane overdose, followed by cardiac perfusion with saline. Following perfusion, the organs were collected and subjected to IVIS imaging for luminescence within 10-15 minutes of D-Luciferin injection.
All IVIS images were processed with a computer software to identify the regions of interests for individual organs to detect the total flux (p/s) values as luminescence quantification. Then the total flux values were graphed to evaluate the in vivo activity in each collected organ.
Small rodent biodistribution studies were performed in mice according to the General Study Protocols in Example 3(a). LNPs incorporating lipid compounds were prepared in Formulation F2, with MC3 as lipid compound (Cayman Chemical) prepared using Formulation F2 for comparison. LNP pools (with firefly luciferase mRNA encapsulated) were injected into mice at varying doses, and organ mean total flux (p/s) results (measuring luciferase activity) were then collected according to Example 3(a).
LNPs comprising MC3 used as a control and for cross-mouse comparison. Dose is in mg/kg; LC is Lipid Compound according to Table 1.
Additional screening results for Compounds 7, 13, 14, 26, 33, 38, 39, 40, 48, 60, 61, 89, 103, and 109 in spleen, femur, and muscle are shown in FIG. 7A, FIG. 7B, and FIG. 7C, with MC3 as a used as a control for comparison.

| SMILES | Organ Mean Total Flux Femur (Mouse 6, dose 0.5 mg/kg) | Organ Mean Total Flux Heart (Mouse 6, dose 0.5 mg/kg) | Organ Mean Total Flux Kidney (Mouse 6, dose 0.5 mg/kg) | Organ Mean Total Flux Liver (Mouse 6, dose 0.5 mg/kg) | Organ Mean Total Flux Lung (Mouse 6, dose 0.5 mg/kg) | Organ Mean Total Flux Muscle (Mouse 6, dose 0.5 mg/kg) | Organ Mean Total Flux Pancreas (Mouse 6, dose 0.5 mg/kg) | Organ Mean Total Flux Spleen (Mouse 6, dose 0.5 mg/kg) | other results |
| --- | --- | --- | --- | --- | --- | --- | --- | --- | --- |
| CCCCC/C=C\CCOC(=O)CCCCCCC(=O)OCC(COC(=O)CCCCCCC(=O)OCC/C=C\CCCCC)(COC(=O)CCCCCCC(=O)OCC/C=C\CCCCC)COC(=O)CCC(CCCCCCCC)OC(=O)NCCN1CCCC1 (centres unmarked) [Compound 27, O8-[2,2-bis[[8-[(Z)-non-3-enoxy]-8-oxooctanoyl]oxymethyl]-3-[4-(2-pyrrolidin-1-ylethylcarbamoyloxy)dodecanoyloxy]propyl]O1-[(Z)-non-3-enyl]octanedioate] | – | – | – | – | – | – | – | – | Organ Mean Total Flux Femur (Mouse 11, dose 0.5 mg/kg): 1.1 p/s (×10^6); Organ Mean Total Flux Heart (Mouse 11, dose 0.5 mg/kg): 1.7 p/s (×10^6); Organ Mean Total Flux Kidney (Mouse 11, dose 0.5 mg/kg): 1.2 p/s (×10^6); Organ Mean Total Flux Liver (Mouse 11, dose 0.5 mg/kg): 1441 p/s (×10^6); Organ Mean Total Flux Lung (Mouse 11, dose 0.5 mg/kg): 16.4 p/s (×10^6); Organ Mean Total Flux Muscle (Mouse 11, dose 0.5 mg/kg): 2.0 p/s (×10^6); Organ Mean Total Flux Pancreas (Mouse 11, dose 0.5 mg/kg): 0.5 p/s (×10^6); Organ Mean Total Flux Spleen (Mouse 11, dose 0.5 mg/kg): 1.0 p/s (×10^6) |
| CCCCCCCCCOC(=O)CCCCCC(=O)OCC(COC(=O)CCCCCC(=O)OCCCCCCCCC)(COC(=O)CCCCCC(=O)OCCCCCCCCC)COC(=O)CCC(CCCCCC)OC(=O)NCCN1CCCC1 (centres unmarked) [Compound 24, O7-[2,2-bis[(7-nonoxy-7-oxo-heptanoyl)oxymethyl]-3-[4-(2-pyrrolidin-1-ylethylcarbamoyloxy)decanoyloxy]propyl]O1-nonyl heptanedioate] | 6.3 p/s (×10^6) | 7.1 p/s (×10^6) | 5.7 p/s (×10^6) | 4153 p/s (×10^6) | 28.8 p/s (×10^6) | 12.1 p/s (×10^6) | 7.9 p/s (×10^6) | 10.7 p/s (×10^6) | – |
| CCCCC/C=C\CCOC(=O)CCCCCCC(=O)OCC(COC(=O)CCCCCCC(=O)OCC/C=C\CCCCC)(COC(=O)CCCCCCC(=O)OCC/C=C\CCCCC)COC(=O)CCC(CCCC)OC(=O)NCCN1CCCC1 (centres unmarked) [Compound 25, O8-[2,2-bis[[8-[(Z)-non-3-enoxy]-8-oxo-octanoyl]oxymethyl]-3-[4-(2-pyrrolidin-1-ylethylcarbamoyloxy)octanoyloxy]propyl]O1-[(Z)-non-3-enyl]octanedioate] | 4.4 p/s (×10^6) | 1.4 p/s (×10^6) | 5.9 p/s (×10^6) | 911.0 p/s (×10^6) | 12.5 p/s (×10^6) | 5.1 p/s (×10^6) | 14.3 p/s (×10^6) | 80.3 p/s (×10^6) | – |
| CCCCCCCC(C)OC(=O)CCCCCC(=O)OCC(COC(=O)CCCCCC(=O)OC(C)CCCCCCC)(COC(=O)CCCCCC(=O)OC(C)CCCCCCC)COC(=O)CCC(CCCCCC)OC(=O)NCCN1CCCC1 (centres unmarked) [Compound 38, O1-[2,2-bis[[7-(1-methyloctoxy)-7-oxo-heptanoyl]oxymethyl]-3-[4-(2-pyrrolidin-1-ylethylcarbamoyloxy)decanoyloxy]propyl]O7-(1-methyloctyl) heptanedioate] | 9.8 p/s (×10^6) | 11.0 p/s (×10^6) | 8.1 p/s (×10^6) | 6770 p/s (×10^6) | 33.3 p/s (×10^6) | 23.5 p/s (×10^6) | 2.6 p/s (×10^6) | 27.2 p/s (×10^6) | – |
| CCCCCCC(CCC(=O)OCC(COC(=O)CCCCCCOC(=O)C(CCCC)CCCCCC)(COC(=O)CCCCCCOC(=O)C(CCCC)CCCCCC)COC(=O)CC12CC3CC(CC(C3)C1)C2)OC(=O)NCCN1CCCC1 (centres unmarked) [Compound 57, [7-[2-[[2-(1-adamantyl)acetyl]oxymethyl]-2-[7-(2-butyloctanoyloxy)heptanoyloxymethyl]-3-[4-(2-pyrrolidin-1-ylethylcarbamoyloxy)decanoyloxy]propoxy]-7-oxo-heptyl]2-butyloctanoate] | – | – | – | – | – | – | – | – | Organ Mean Total Flux Femur (Mouse 3, dose 1.0 mg/kg): 7.4 p/s (×10^6); Organ Mean Total Flux Heart (Mouse 3, dose 1.0 mg/kg): 16.1 p/s (×10^6); Organ Mean Total Flux Kidney (Mouse 3, dose 1.0 mg/kg): 11.4 p/s (×10^6); Organ Mean Total Flux Liver (Mouse 3, dose 1.0 mg/kg): 25033 p/s (×10^6); Organ Mean Total Flux Lung (Mouse 3, dose 1.0 mg/kg): 71.8 p/s (×10^6); Organ Mean Total Flux Muscle (Mouse 3, dose 1.0 mg/kg): 16.4 p/s (×10^6); Organ Mean Total Flux Pancreas (Mouse 3, dose 1.0 mg/kg): 2.7 p/s (×10^6); Organ Mean Total Flux Spleen (Mouse 3, dose 1.0 mg/kg): 6.5 p/s (×10^6) |
| CCCCC/C=C\CCOC(=O)CCCCC(=O)OCC(COC(=O)CCCCC(=O)OCC/C=C\CCCCC)(COC(=O)CCC(CCCCCC)OC(=O)NCCN1CCCC1)COC(=O)C12CCCC1C2 (centres unmarked) [Compound 101, O6-[2-(bicyclo[3.1.0]hexane-1-carbonyloxymethyl)-2-[[6-[(Z)-non-3-enoxy]-6-oxo-hexanoyl]oxymethyl]-3-[4-(2-pyrrolidin-1-ylethylcarbamoyloxy)decanoyloxy]propyl]O1-[(Z)-non-3-enyl]hexanedioate] | – | – | – | – | – | – | – | – | Organ Mean Total Flux Femur (Mouse 12, dose 0.5 mg/kg): 9.7 p/s (×10^6); Organ Mean Total Flux Heart (Mouse 12, dose 0.5 mg/kg): 0.8 p/s (×10^6); Organ Mean Total Flux Kidney (Mouse 12, dose 0.5 mg/kg): 0.9 p/s (×10^6); Organ Mean Total Flux Liver (Mouse 12, dose 0.5 mg/kg): 306.7 p/s (×10^6); Organ Mean Total Flux Lung (Mouse 12, dose 0.5 mg/kg): 26.5 p/s (×10^6); Organ Mean Total Flux Muscle (Mouse 12, dose 0.5 mg/kg): 5.2 p/s (×10^6); Organ Mean Total Flux Pancreas (Mouse 12, dose 0.5 mg/kg): 14.3 p/s (×10^6); Organ Mean Total Flux Spleen (Mouse 12, dose 0.5 mg/kg): 53.2 p/s (×10^6) |
| CCCCC/C=C\CCOC(=O)CCCCC(=O)OCC(COC(=O)CCCCC(=O)OCC/C=C\CCCCC)(COC(=O)CCC(CCCCCC)OC(=O)NCCN1CCCC1)COC(=O)C1CC2C(C1)C2(F)F (centres unmarked) [Compound 81, O6-[2-[(6,6-difluorobicyclo[3.1.0]hexane-3-carbonyl)oxymethyl]-2-[[6-[(Z)-non-3-enoxy]-6-oxo-hexanoyl]oxymethyl]-3-[4-(2-pyrrolidin-1-ylethylcarbamoyloxy)decanoyloxy]propyl]O1-[(Z)-non-3-enyl]hexanedioate] | – | – | – | – | – | – | – | – | Organ Mean Total Flux Femur (Mouse 12, dose 0.5 mg/kg): 11.1 p/s (×10^6); Organ Mean Total Flux Heart (Mouse 12, dose 0.5 mg/kg): 1.2 p/s (×10^6); Organ Mean Total Flux Kidney (Mouse 12, dose 0.5 mg/kg): 4.0 p/s (×10^6); Organ Mean Total Flux Liver (Mouse 12, dose 0.5 mg/kg): 727.0 p/s (×10^6); Organ Mean Total Flux Lung (Mouse 12, dose 0.5 mg/kg): 12.1 p/s (×10^6); Organ Mean Total Flux Muscle (Mouse 12, dose 0.5 mg/kg): 5.7 p/s (×10^6); Organ Mean Total Flux Pancreas (Mouse 12, dose 0.5 mg/kg): 12.9 p/s (×10^6); Organ Mean Total Flux Spleen (Mouse 12, dose 0.5 mg/kg): 115.9 p/s (×10^6) |
| CCCCC/C=C\CCOC(=O)CCCCCC(=O)OCC(COC(=O)CCCCCC(=O)OCC/C=C\CCCCC)(COC(=O)CCCCCC(=O)OCC/C=C\CCCCC)COC(=O)CCC(CCCCCCCC)OC(=O)NCCN1CCCC1 (centres unmarked) [Compound 28, O7-[2,2-bis[[7-[(Z)-non-3-enoxy]-7-oxo-heptanoyl]oxymethyl]-3-[4-(2-pyrrolidin-1-ylethylcarbamoyloxy)dodecanoyloxy]propyl]O1-[(Z)-non-3-enyl]heptanedioate] | 3.5 p/s (×10^6) | 0.5 p/s (×10^6) | 0.9 p/s (×10^6) | 278.3 p/s (×10^6) | 10.4 p/s (×10^6) | 11.6 p/s (×10^6) | 0.8 p/s (×10^6) | 3.5 p/s (×10^6) | – |
| CCCCCCCCC(C)OC(=O)CCCCCCC(=O)OCC(COC(=O)CCCCCCC(=O)OC(C)CCCCCCCC)(COC(=O)CCCCCCC(=O)OC(C)CCCCCCCC)COC(=O)CCC(CCCCCC)OC(=O)NCCN1CCCC1 (centres unmarked) [Compound 39, O1-[2,2-bis[[8-(1-methylnonoxy)-8-oxo-octanoyl]oxymethyl]-3-[4-(2-pyrrolidin-1-ylethylcarbamoyloxy)decanoyloxy]propyl]O8-(1-methylnonyl) octanedioate] | – | – | – | – | – | – | – | – | Organ Mean Total Flux Femur (Mouse 11, dose 0.5 mg/kg): 2.6 p/s (×10^6); Organ Mean Total Flux Heart (Mouse 11, dose 0.5 mg/kg): 6.5 p/s (×10^6); Organ Mean Total Flux Kidney (Mouse 11, dose 0.5 mg/kg): 2.3 p/s (×10^6); Organ Mean Total Flux Liver (Mouse 11, dose 0.5 mg/kg): 3390 p/s (×10^6); Organ Mean Total Flux Lung (Mouse 11, dose 0.5 mg/kg): 19.6 p/s (×10^6); Organ Mean Total Flux Muscle (Mouse 11, dose 0.5 mg/kg): 11.0 p/s (×10^6); Organ Mean Total Flux Pancreas (Mouse 11, dose 0.5 mg/kg): 1.1 p/s (×10^6); Organ Mean Total Flux Spleen (Mouse 11, dose 0.5 mg/kg): 2.9 p/s (×10^6) |
| CCCCCCCCCCOC(=O)CCCCCC(=O)OCC(COC(=O)CCCCCC(=O)OCCCCCCCCCC)(COC(=O)CCCCCC(=O)OCCCCCCCCCC)COC(=O)CCC(CCCCCC)OC(=O)NCCN1CCCC1 (centres unmarked) [Compound 36, O7-[2,2-bis[(7-decoxy-7-oxo-heptanoyl)oxymethyl]-3-[4-(2-pyrrolidin-1-ylethylcarbamoyloxy)decanoyloxy]propyl]O1-decyl heptanedioate] | 3.6 p/s (×10^6) | 3.7 p/s (×10^6) | 2.7 p/s (×10^6) | 2330 p/s (×10^6) | 16.5 p/s (×10^6) | 6.0 p/s (×10^6) | 1.2 p/s (×10^6) | 6.1 p/s (×10^6) | – |
